In ChEMBL document CHEMBL3885861, “Open TG-GATES”:

Organism: Rattus norvegicus
Assay: Open TG-GATES - Regimen: Daily Repeat
Format: toxicity, organism-based, Sprague-Dawley
Set-up: regimen Daily Repeat, gender Male, age 6 weeks
Conditions: in vivo, po, 0 mg/kg, route gavage, dose level Control; for APTT / Bas / Eos / Fbg / Hb / Ht / Lym / MCH / MCHC / MCV / Mono / Neu / PT / Plat / RBC / Ret / WBC: tissue Blood; for KIDNEY_L / KIDNEY_R / KIDNEY_TOTAL: tissue Kidney; for LIVER: tissue Liver; for A/G / ALP / ALT / AST / BUN / CRE / Ca / Cl / DBIL / GLC / IP / K / LDH / Na / PL / RALB / TBIL / TC / TG / TP / gamma-GTP: tissue Plasma

For CCCNC(=O)NS(=O)(=O)c1ccc(Cl)cc1 [CHLORPROPAMIDE], the TERMINAL_BW (72 h, time 3 day) was 215.2 g, the APTT (72 h, time 3 day) was 17.7 s and the Bas (72 h, time 3 day) was 0.2%. For the same compound, the Eos (72 h, time 3 day) was 1%, the Fbg (72 h, time 3 day) was 289.2 mg/dL and the Hb (72 h, time 3 day) was 13.2 g/dL. For the same compound, the Ht (72 h, time 3 day) was 40.3%, the Lym (72 h, time 3 day) was 78% and the MCH (72 h, time 3 day) was 21.8 pg. The MCHC (72 h, time 3 day) was 32.8%, the MCV (72 h, time 3 day) was 66.6 fL and the Mono (72 h, time 3 day) was 4%. It also gave a Neu (72 h, time 3 day) of 16%, a PT (72 h, time 3 day) of 15.4 s and a Plat (72 h, time 3 day) of 120.9 x10_4/uL. For the same compound, the RBC (72 h, time 3 day) was 605.6 x10_4/ul, the Ret (72 h, time 3 day) was 7.5% and the WBC (72 h, time 3 day) was 84 x10_2/uL. It also gave a KIDNEY_L (72 h, time 3 day) of 0.9 g, a KIDNEY_R (72 h, time 3 day) of 0.9 g and a KIDNEY_TOTAL (72 h, time 3 day) of 1.9 g. For the same compound, the LIVER (72 h, time 3 day) was 10.4 g, the A/G (72 h, time 3 day) was 0.9 and the ALP (72 h, time 3 day) was 1591.4 IU/L. It also gave an ALT (72 h, time 3 day) of 48.2 IU/L, an AST (72 h, time 3 day) of 71.6 IU/L and a BUN (72 h, time 3 day) of 16.8 mg/dL. The CRE (72 h, time 3 day) was 0.2 mg/dL, the Ca (72 h, time 3 day) was 10.8 mg/dL and the Cl (72 h, time 3 day) was 105 meq/L. For the same compound, the DBIL (72 h, time 3 day) was 0.01 mg/dL, the GLC (72 h, time 3 day) was 184 mg/dL and the IP (72 h, time 3 day) was 7.3 mg/dL. It also gave a K (72 h, time 3 day) of 4 meq/L, an LDH (72 h, time 3 day) of 95.2 IU/L and a Na (72 h, time 3 day) of 142.2 meq/L. The PL (72 h, time 3 day) was 154.6 mg/dL, the RALB (72 h, time 3 day) was 2.7 g/dL and the TBIL (72 h, time 3 day) was 0.034 mg/dL. The TC (72 h, time 3 day) was 80.4 mg/dL, the TG (72 h, time 3 day) was 107.2 mg/dL and the TP (72 h, time 3 day) was 5.8 g/dL. The gamma-GTP (72 h, time 3 day) was 1 IU/L, the TERMINAL_BW ([…], time 7 day) was 251.8 g and the TERMINAL_BW ([…], time 14 day) was 307.1 g. For the same compound, the TERMINAL_BW ([…], time 28 day) was 390.8 g, the APTT ([…], time 7 day) was 17.6 s and the Bas ([…], time 7 day) was 0.2%. The Eos ([…], time 7 day) was 1%, the Fbg ([…], time 7 day) was 294 mg/dL and the Hb ([…], time 7 day) was 13.7 g/dL. For the same compound, the Ht ([…], time 7 day) was 40.9%, the Lym ([…], time 7 day) was 76.2% and the MCH ([…], time 7 day) was 21.6 pg. The MCHC ([…], time 7 day) was 33.4%, the MCV ([…], time 7 day) was 64.7 fL and the Mono ([…], time 7 day) was 2.6%. The Neu ([…], time 7 day) was 18.8%, the PT ([…], time 7 day) was 15.5 s and the Plat ([…], time 7 day) was 124.5 x10_4/uL. For the same compound, the RBC ([…], time 7 day) was 632 x10_4/ul, the Ret ([…], time 7 day) was 6.4% and the WBC ([…], time 7 day) was 98.4 x10_2/uL. For the same compound, the APTT ([…], time 14 day) was 18.5 s, the Bas ([…], time 14 day) was 0.2% and the Eos ([…], time 14 day) was 1%. It also gave a Fbg ([…], time 14 day) of 274 mg/dL, a Hb ([…], time 14 day) of 14.5 g/dL and a Ht ([…], time 14 day) of 42.8%. For the same compound, the Lym ([…], time 14 day) was 78.4%, the MCH ([…], time 14 day) was 20.6 pg and the MCHC ([…], time 14 day) was 33.8%. It also gave an MCV ([…], time 14 day) of 60.8 fL, a Mono ([…], time 14 day) of 2.4% and a Neu ([…], time 14 day) of 17.4%. The PT ([…], time 14 day) was 15.2 s, the Plat ([…], time 14 day) was 122.4 x10_4/uL and the RBC ([…], time 14 day) was 703.6 x10_4/ul. The Ret ([…], time 14 day) was 4.5%, the WBC ([…], time 14 day) was 115.5 x10_2/uL and the APTT ([…], time 28 day) was 20.6 s. It also gave a Bas ([…], time 28 day) of 0.2%, an Eos ([…], time 28 day) of 1.2% and a Fbg ([…], time 28 day) of 259.6 mg/dL. The Hb ([…], time 28 day) was 14.9 g/dL, the Ht ([…], time 28 day) was 45.3% and the Lym ([…], time 28 day) was 78.8%. For the same compound, the MCH ([…], time 28 day) was 19 pg, the MCHC ([…], time 28 day) was 32.9% and the MCV ([…], time 28 day) was 57.5 fL. It also gave a Mono ([…], time 28 day) of 2%, a Neu ([…], time 28 day) of 17% and a PT ([…], time 28 day) of 16.1 s. It also gave a Plat ([…], time 28 day) of 94.8 x10_4/uL, an RBC ([…], time 28 day) of 787.4 x10_4/ul and a Ret ([…], time 28 day) of 2.2%. The WBC ([…], time 28 day) was 103.1 x10_2/uL, the KIDNEY_L ([…], time 7 day) was 1.1 g and the KIDNEY_R ([…], time 7 day) was 1.1 g. For the same compound, the KIDNEY_TOTAL ([…], time 7 day) was 2.2 g, the KIDNEY_L ([…], time 14 day) was 1.2 g and the KIDNEY_R ([…], time 14 day) was 1.2 g. For the same compound, the KIDNEY_TOTAL ([…], time 14 day) was 2.4 g, the KIDNEY_L ([…], time 28 day) was 1.4 g and the KIDNEY_R ([…], time 28 day) was 1.4 g. For the same compound, the KIDNEY_TOTAL ([…], time 28 day) was 2.8 g, the LIVER ([…], time 7 day) was 11.6 g and the LIVER ([…], time 14 day) was 13.6 g. The LIVER ([…], time 28 day) was 14.6 g, the A/G ([…], time 7 day) was 0.8 and the ALP ([…], time 7 day) was 1869.6 IU/L. It also gave an ALT ([…], time 7 day) of 43.2 IU/L, an AST ([…], time 7 day) of 69.4 IU/L and a BUN ([…], time 7 day) of 15.4 mg/dL. It also gave a CRE ([…], time 7 day) of 0.2 mg/dL, a Ca ([…], time 7 day) of 10.9 mg/dL and a Cl ([…], time 7 day) of 106 meq/L. It also gave a DBIL ([…], time 7 day) of 0.014 mg/dL, a GLC ([…], time 7 day) of 185.6 mg/dL and an IP ([…], time 7 day) of 6.7 mg/dL. It also gave a K ([…], time 7 day) of 4.2 meq/L, an LDH ([…], time 7 day) of 97.4 IU/L and a Na ([…], time 7 day) of 143 meq/L. It also gave a PL ([…], time 7 day) of 154.2 mg/dL, an RALB ([…], time 7 day) of 2.7 g/dL and a TBIL ([…], time 7 day) of 0.036 mg/dL. For the same compound, the TC ([…], time 7 day) was 82 mg/dL, the TG ([…], time 7 day) was 105.2 mg/dL and the TP ([…], time 7 day) was 5.8 g/dL. For the same compound, the gamma-GTP ([…], time 7 day) was 1.2 IU/L, the A/G ([…], time 14 day) was 0.8 and the ALP ([…], time 14 day) was 1479.6 IU/L. It also gave an ALT ([…], time 14 day) of 44.6 IU/L, an AST ([…], time 14 day) of 68.6 IU/L and a BUN ([…], time 14 day) of 18.4 mg/dL. The CRE ([…], time 14 day) was 0.2 mg/dL, the Ca ([…], time 14 day) was 10.7 mg/dL and the Cl ([…], time 14 day) was 104.2 meq/L. For the same compound, the DBIL ([…], time 14 day) was 0.012 mg/dL, the GLC ([…], time 14 day) was 194.6 mg/dL and the IP ([…], time 14 day) was 7.3 mg/dL. For the same compound, the K ([…], time 14 day) was 4.1 meq/L, the LDH ([…], time 14 day) was 120 IU/L and the Na ([…], time 14 day) was 143.4 meq/L. The PL ([…], time 14 day) was 164 mg/dL, the RALB ([…], time 14 day) was 2.8 g/dL and the TBIL ([…], time 14 day) was 0.032 mg/dL. The TC ([…], time 14 day) was 77.8 mg/dL, the TG ([…], time 14 day) was 158.4 mg/dL and the TP ([…], time 14 day) was 6.1 g/dL. It also gave a gamma-GTP ([…], time 14 day) of 1 IU/L, an A/G ([…], time 28 day) of 0.8 and an ALP ([…], time 28 day) of 1207 IU/L. It also gave an ALT ([…], time 28 day) of 40.2 IU/L, an AST ([…], time 28 day) of 66.8 IU/L and a BUN ([…], time 28 day) of 16.2 mg/dL. The CRE ([…], time 28 day) was 0.2 mg/dL, the Ca ([…], time 28 day) was 10.6 mg/dL and the Cl ([…], time 28 day) was 105.6 meq/L. The DBIL ([…], time 28 day) was 0.01 mg/dL, the GLC ([…], time 28 day) was 188.8 mg/dL and the IP ([…], time 28 day) was 6.5 mg/dL. For the same compound, the K ([…], time 28 day) was 3.8 meq/L, the LDH ([…], time 28 day) was 88.4 IU/L and the Na ([…], time 28 day) was 144 meq/L. The PL ([…], time 28 day) was 137.6 mg/dL, the RALB ([…], time 28 day) was 2.7 g/dL and the TBIL ([…], time 28 day) was 0.03 mg/dL. It also gave a TC ([…], time 28 day) of 65.8 mg/dL, a TG ([…], time 28 day) of 122.6 mg/dL and a TP ([…], time 28 day) of 6.1 g/dL. The gamma-GTP ([…], time 28 day) was 1 IU/L.
